Measurements published in patent US6706718B2, “3-(2,4-dimethylthiazol-5-yl)indeno[1,2-c]pyrazol-4-one derivatives and their uses” (Bristol-Myers Squibb Company, priority 2000, dated 2004).
Where a name gives a salt, the structure may show the parent alone.

SMILES | melting point [°C]
Cc1nc(C)c(-c2[nH]nc3c2C(=O)c2c(NC(=O)NN4CCOCC4)cccc2-3)s1 (as salt: TFA) [Example 2, 3-(2,4-dimethylthiazol-5-yl)-5-(morpholinocarbamoylamino)indeno[1,2-c]pyrazol-4-one] | > 300
Cc1nc(C)c(-c2[nH]nc3c2C(=O)c2c(NC(=O)NN4CCN(C)CC4)cccc2-3)s1 (as salt: hydrochloride) | 278
